# pEC50, pKd: −log10 of the molar value. Read-outs that look alike come from different tables or passages of the source.
# Key:
# Keap1 (A321-C624) (h) = biological target: T1, Keap1 (A321-C624) (h) (Homo sapiens, UniProt Q14145); assay: Surface Plasmon Resonance binding assay to Kelch domain of KEAP1; conditions: Biacore T200, 25° C., immobilized His-Thromb-KEAP1(A321-C624), single cycle kinetics, KD=kd/ka from 1:1 fit; read-out: Keap1 (A321-C624) (h) direct/SPR (KD)
# T1 construct: His-Thromb-KEAP1(A321-C624) acquired from Novalix (batch PU-P01) was immobilized covalently by amine coupling; His tag (N); thrombin cleavage site (Thromb) (N); purchased Novalix batch PU-P01
# T1 sequence (Q14145 321-624): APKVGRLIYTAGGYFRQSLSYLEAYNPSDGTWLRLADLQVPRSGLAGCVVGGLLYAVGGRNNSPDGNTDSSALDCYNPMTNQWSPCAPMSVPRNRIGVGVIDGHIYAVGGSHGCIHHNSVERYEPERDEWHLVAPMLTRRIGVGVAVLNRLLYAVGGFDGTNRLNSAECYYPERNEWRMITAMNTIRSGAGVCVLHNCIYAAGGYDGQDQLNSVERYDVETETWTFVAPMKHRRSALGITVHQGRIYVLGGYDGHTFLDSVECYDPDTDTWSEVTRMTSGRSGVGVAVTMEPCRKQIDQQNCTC
# In short: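 His-Thromb-KEAP1(A321-C624) amine-coupled on CM5 chip to 1250 RU; amine blank reference. Run at 25° C in HEPES pH 7.4, 150 mM NaCl, 3 mM EDTA, 1 mM TCEP, 0.05% P20, 5% DMSO; 180 s association, 720 s dissociation, 50 μL/min. KD = kd/ka from 1:1 kinetic fit, double-referenced, DMSO solvent-corrected.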
# [1] = tested on: Nrf2 (Keap1-NRF2 nuclear translocation); assay: U2OS translocation assay (PathHunter U2OS Keap1-NRF2 Nuclear Translocation Cell Line); format: cell-based; conditions: for pEC50: read-out: CELLULAR U2OS EC50, U2OS Keap1-NRF2 nuclear translocation cells, 3 h incubation, luminescence, normalized between 1% DMSO and 10 μM andrographolide; for EC50: Homo sapiens, U2OS, 3 h, read-out: CELLULAR U2OS EC50 (nM), U2OS Keap1-NRF2 nuclear translocation cells, 3 h incubation, luminescence, normalized between 1% DMSO and 10 μM andrographolide
# In short: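 Enzyme-fragment complementation read-out: luminescence after 60 min of detection reagent at room temperature, following a 3 h, 37° C compound exposure of engineered U2OS Keap1-NRF2 translocation cells (1% FBS medium). Signal scaled from 1% DMSO basal to 10 μM andrographolide maximum.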
SMILES,pKd (Keap1 (A321-C624) (h)),pEC50 [1],EC50 [1] [nM]
"Cc1cc2cc(c1Cl)CN1Cc3cc(ccc3OS1(=O)=O)OCCCCn1nnc3c(C)c(ccc31)C2CC(=O)O (single isomer, unassigned) [Example 36b, [4-Chloro-5,31-dimethyl-27,27-dioxo-21,26-dioxa-27λ^6-thia-1,14,15,16-tetraazahexacyclo[20.5.3.1^3,70.1^9,130.0^12,160.0^25,29]dotriaconta-3(32),4,6,9(31),10,12,14,22,24,29-decaen-8-yl]acetic acid]",7.49,5.90,–
"COc1c(Cl)cc2cc1CN1Cc3cc(ccc3OS1(=O)=O)OCCCCn1nnc3c(C)c(ccc31)C2CC(=O)O (single isomer, unassigned) [Example 37a, [5-Chloro-4-methoxy-31-methyl-27,27-dioxo-21,26-dioxa-27λ^6-thia-1,14,15,16-tetraazahexacyclo[20.5.3.1^3,70.1^9,130.0^12,160.0^25,29]dotriaconta-3(32),4,6,9(31),10,12,14,22,24,29-decaen-8-yl]acetic acid]",7.12,5.89,–
"COc1c(Cl)cc2cc1CN1Cc3cc(ccc3OS1(=O)=O)OCCCCn1nnc3c(C)c(ccc31)C2CC(=O)O (single isomer, unassigned) [Example 37b, [5-Chloro-4-methoxy-31-methyl-27,27-dioxo-21,26-dioxa-27λ^6-thia-1,14,15,16-tetraazahexacyclo[20.5.3.1^3,70.1^9,130.0^12,160.0^25,29]dotriaconta-3(32),4,6,9(31),10,12,14,22,24,29-decaen-8-yl]acetic acid]",6.28,< 5.50,–
"COc1cc2cc(c1Cl)CN1Cc3cc(ccc3OS1(=O)=O)OCCCCn1nnc3c(C)c(ccc31)C2CC(=O)O (single isomer, unassigned) [Example 38b, [4-Chloro-5-methoxy-31-methyl-27,27-dioxo-21,26-dioxa-27λ^6-thia-1,14,15,16-tetraazahexacyclo[20.5.3.1^3,70.1^9,130.0^12,160.0^25,29]dotriaconta-3(32),4,6,9(31),10,12,14,22,24,29-decaen-8-yl]acetic acid]",6.22,–,> 3160
"Cc1ccc2cc1CN1Cc3cc(ccc3N(C)S1(=O)=O)OCCCCn1nnc3c(C)c(ccc31)C2CC(=O)O (single isomer, unassigned) [Example 39a, [4,26,31-Trimethyl-27,27-dioxo-21-oxa-27λ^6-thia-1,14,15,16,26-pentaazahexacyclo[20.5.3.1^3,70.1^9,130.0^12,160.0^25,29]dotriaconta-3(32),4,6,9(31),10,12,14,22,24,29-decaen-8-yl]acetic acid]",9.86,7.85,–
"Cc1ccc2cc1CN1Cc3cc(ccc3N(C)S1(=O)=O)OCCCCn1nnc3c(C)c(ccc31)C2CC(=O)O (single isomer, unassigned) [Example 39b, [4,26,31-Trimethyl-27,27-dioxo-21-oxa-27λ^6-thia-1,14,15,16,26-pentaazahexacyclo[20.5.3.1^3,70.1^9,130.0^12,160.0^25,29]dotriaconta-3(32),4,6,9(31),10,12,14,22,24,29-decaen-8-yl]acetic acid]",9.16,7.10,–
"Cc1ccc2cc1CN1Cc3cc(ccc3OS1(=O)=O)OC[C@H](C)CCn1nnc3c(C)c(ccc31)C2CC(=O)O (single isomer, unassigned) [Example 45a]",9.23,7.93,–
"Cc1ccc2cc1CN1Cc3cc(ccc3OS1(=O)=O)OC[C@H](C)CCn1nnc3c(C)c(ccc31)C2CC(=O)O (single isomer, unassigned) [Example 45b]",8.63,6.84,–
"Cc1ccc2cc1CN1Cc3cc(ccc3OS1(=O)=O)OCCN(c1ccccc1)CCn1nnc3c(C)c(ccc31)C2CC(=O)O (single isomer, unassigned) [Example 58a, [4,32-Dimethyl-28,28-dioxo-19-phenyl-22,27-dioxa-28λ^6-thia-1,14,15,16,19-pentaazahexacyclo[21.5.3.1^3,70.1^9,130.0^12,160.0^26,30]tritriaconta-3(33),4,6,9(32),10,12,14,23,25,30-decaen-8-yl]acetic acid]",8.33,7.04,–
"Cc1ccc2cc1CN1Cc3cc(ccc3OS1(=O)=O)OCCN(c1ccccc1)CCn1nnc3c(C)c(ccc31)C2CC(=O)O (single isomer, unassigned) [Example 58b, [4,32-Dimethyl-28,28-dioxo-19-phenyl-22,27-dioxa-28λ^6-thia-1,14,15,16,19-pentaazahexacyclo[21.5.3.1^3,70.1^9,130.0^12,160.0^26,30]tritriaconta-3(33),4,6,9(32),10,12,14,23,25,30-decaen-8-yl]acetic acid]",7.90,6.37,–

# Further lines, with some results ahead:
pKd (Keap1 (A321-C624) (h)),SMILES,pEC50 [1],EC50 [1] [nM]
7.32,"COc1ccc2cc1CN1Cc3cc(ccc3OS1(=O)=O)OCc1ccccc1OCCCCn1nnc3c(C)c(ccc31)C2CC(=O)O (single isomer, unassigned) [Example 53a, [4-Methoxy-39-methyl-35,35-dioxo-21,29,34-trioxa-35λ^6-thia-1,14,15,16-tetraazaheptacyclo[28.5.3.1^3,70.1^9,130.0^12,160.0^22,270.0^33,37]tetraconta-3(40),4,6,9(39),10,12,14,22,24,26,30,32,37-tridecaen-8-yl]acetic acid]",6.43,–
6.75,"COc1ccc2cc1CN1Cc3cc(ccc3OS1(=O)=O)OCc1ccccc1OCCCCn1nnc3c(C)c(ccc31)C2CC(=O)O (single isomer, unassigned) [Example 53b, [4-Methoxy-39-methyl-35,35-dioxo-21,29,34-trioxa-35λ^6-thia-1,14,15,16-tetraazaheptacyclo[28.5.3.1^3,70.1^9,130.0^12,160.0^22,270.0^33,37]tetraconta-3(40),4,6,9(39),10,12,14,22,24,26,30,32,37-tridecaen-8-yl]acetic acid]",6.05,–
7.04,"COc1ccc2cc1CN1Cc3cc(ccc3OS1(=O)=O)OCc1ccccc1SCCCCn1nnc3c(C)c(ccc31)C2CC(=O)O (single isomer, unassigned) [Example 54a]",–,1290
6.41,"COc1ccc2cc1CN1Cc3cc(ccc3OS1(=O)=O)OCc1ccccc1SCCCCn1nnc3c(C)c(ccc31)C2CC(=O)O (single isomer, unassigned) [Example 54b]",5.64,–
7.23,"Cc1ccc2cc1CN1Cc3cc(ccc3OS1(=O)=O)OCc1ccccc1OCCCn1nnc3c(C)c(ccc31)C2CC(=O)O (single isomer, unassigned) [Example 57a, [4,38-Dimethyl-34,34-dioxo-20,28,33-trioxa-34λ^6-thia-1,14,15,16-tetraazaheptacyclo[27.5.3.1^3,70.1^9,130.0^12,160.0^21,260.0^32,36]nonatriaconta-3(39),4,6,9(38),10,12,14,21,23,25,29,31,36-tridecaen-8-yl]acetic acid]",6.30,–
6.30,"Cc1ccc2cc1CN1Cc3cc(ccc3OS1(=O)=O)OCc1ccccc1OCCCn1nnc3c(C)c(ccc31)C2CC(=O)O (single isomer, unassigned) [Example 57b, [4,38-Dimethyl-34,34-dioxo-20,28,33-trioxa-34λ^6-thia-1,14,15,16-tetraazaheptacyclo[27.5.3.1^3,70.1^9,130.0^12,160.0^21,260.0^32,36]nonatriaconta-3(39),4,6,9(38),10,12,14,21,23,25,29,31,36-tridecaen-8-yl]acetic acid]",5.55,–
8.29,"COc1ccc2cc1CN1Cc3cc(ccc3OS1(=O)=O)OCCOCCn1nnc3c(C)c(ccc31)C2CC(=O)O (single isomer, unassigned) [Example 59a, [4-Methoxy-32-methyl-28,28-dioxo-19,22,27-trioxa-28λ^6-thia-1,14,15,16-tetraazahexacyclo[21.5.3.1^3,70.1^9,130.0^12,160.0^26,30]tritriaconta-3(33),4,6,9(32),10,12,14,23,25,30-decaen-8-yl]acetic acid]",–,311
8.52,"Cc1ccc2cc1CN1Cc3cc(ccc3OS1(=O)=O)OCc1ccccc1CCn1nnc3c(C)c(ccc31)C2CC(=O)O (single isomer, unassigned) [Example 62a, [4,36-Dimethyl-32,32-dioxo-26,31-dioxa-32λ^6-thia-1,14,15,16-tetraazaheptacyclo[25.5.3.1^3,70.1^9,130.0^12,160.0^19,240.0^30,34]heptatriaconta-3(37),4,6,9(36),10,12,14,19,21,23,27,29,34-tridecaen-8-yl]acetic acid]",–,177
8.36,"Cc1ccc2cc1CN1Cc3cc(ccc3OS1(=O)=O)OCCSCCn1nnc3c(C)c(ccc31)C2CC(=O)O (single isomer, unassigned) [Example 63a, [4,32-Dimethyl-28,28-dioxo-22,27-dioxa-19,28λ^6-dithia-1,14,15,16-tetraazahexacyclo[21.5.3.1^3,70.1^9,130.0^12,160.0^26,30]tritriaconta-3(33),4,6,9(32),10,12,14,23,25,30-decaen-8-yl]acetic acid]",–,57.1

# Reference: US12643912B2, “Macrocyclic compounds, a process for their preparation and pharmaceutical compositions containing them” (LES LABORATOIRES SERVIER, priority 2020, dated 2026)
